Laboratory results published in publication PMC8081377 (Mutagenesis, 2021).
Counter-ions that a name gives are not always drawn. Like-named read-outs stand apart in the source and are kept apart here.

Legend:
[1] = tested on: EpiDerm™ EPI-200-MNA skin tissues
[2] = tested on: EpiDerm™ EPI-200-MNA skin tissues; remark: listed apart in the source
[3] = two treatments, vs solvent control
[4] = % VCC or % BN, lab(s) as stated in the text
[5] = lack of excessive cytotoxicity, 48-h protocol
[6] = three treatments, vs solvent control

CCCCNC(=O)NS(=O)(=O)c1ccc(C)cc1 [Tolbutamide]
classification in the RSMN assay by Lab A ([1]; early Phase 2a only): positive
classification in the RSMN assay by Lab A ([1]; later Phase 2a testing only, expected outcome negative): correctly classified
classification in the RSMN assay by Lab B ([1]; overall call): negative
classification in the RSMN assay by Lab C ([1]; overall call): negative
% MN-BN response in individual experiment(s), Lab C, 48-h protocol [1, 3]: negative results

Oc1ccc(Cl)cc1Cl [2,4-Dichlorophenol]
top/maximum dose tested, limited by excessive or strong cytotoxicity [2, 4]: 50 µg/cm^2
classification in the RSMN assay by Lab A ([1]; overall call): negative
classification in the RSMN assay by Lab D ([1]; overall call): negative
% MN-BN response in individual experiment(s), Lab A, 48-h protocol [1, 3]: no statistically significant increases
% MN-BN response in individual experiment(s), Lab D, 48-h protocol [1, 3]: negative

CCCCCl [N-Butyl chloride]
% MN-BN response in individual experiment(s), Lab A, 72-h protocol [1]: negative results
% MN-BN response in individual experiment(s), Lab B, 48-h protocol [1]: no significant increases
% MN-BN response in individual experiment(s), Lab C, 48-h protocol [1]: no significant increase
% MN-BN response in individual experiment(s), Lab C, 72-h protocol [1]: no significant increase
% MN-BN response in individual experiment(s), Lab D, 48-h protocol [1]: no significant increases
classification in the RSMN assay by Lab A [1]: negative
classification in the RSMN assay by Lab B [1]: negative
classification in the RSMN assay by Lab C [1]: negative
classification in the RSMN assay by Lab D [1]: negative

CC1(C)S[C@@H]2[C@H](NC(=O)[C@H](N)c3ccccc3)C(=O)N2[C@H]1C(=O)O [Ampicillin sodium salt]
maximum dose tested without exceeding the cytotoxicity thresholds [2, 5]: 1600 µg/cm^2
classification in the RSMN assay by Lab A ([1]; overall call): negative
% MN-BN response in individual experiment(s), Lab A, 48-h protocol [1, 3]: no significant increases

Oc1ccccc1 [Phenol]
% MN-BN response in individual experiment(s), Lab D, 48-h protocol [1]: significant increase in the % MN-BN was observed only at the highest dose tested
classification in the RSMN assay by Lab D [1]: negative

Cc1cn([C@H]2C[C@H](N=[N+]=[N-])[C@@H](CO)O2)c(=O)[nH]c1=O [Azidothymidine (AZT), Azidothymidine]
top/maximum dose tested, limited by excessive or strong cytotoxicity ([2]; human): 700 µg/cm^2
classification in the RSMN assay by Lab A ([1]; overall call): positive
% MN-BN response in individual experiment(s), Lab A, 72-h protocol [1, 6]: significant increases
% MN-BN response in individual experiment(s), Lab A, 48-h protocol [1, 3]: significant increase

COc1cc2c(c(OC)c1OC)-c1ccc(OC)c(=O)cc1[C@@H](NC(C)=O)CC2 [Colchicine]
top/maximum dose tested, limited by excessive or strong cytotoxicity [2, 4]: 0.03 µg/cm^2
classification in the RSMN assay by Lab A ([1]; overall call): positive
classification in the RSMN assay by Lab C ([1]; overall call): positive
% MN-BN response in individual experiment(s), Lab A, 48-h protocol [1, 3]: highly significant increases
% MN-BN response in individual experiment(s), Lab C, 48-h protocol [1, 3]: highly significant increases

c1ccc2c(c1)ccc1ccccc12 [Phenanthrene]
top dose, limited by precipitation on the surface of the skin tissues ([2]; lab(s) as stated in the text): 200–400 µg/cm^2
doses at which precipitation was seen ([2]; second 48-h experiment, Lab A): ≥ 400 µg/cm^2
% MN-BN response in individual experiment(s), Lab B, 48-h protocol [1]: negative
% MN-BN response in individual experiment(s), Lab B, 72-h protocol [1]: no evidence for an increase
% MN-BN response in individual experiment(s), Lab C, 48-h protocol [1]: negative
% MN-BN response in individual experiment(s), Lab D, 48-h protocol [1]: negative
classification in the RSMN assay by Lab A [1]: positive
classification in the RSMN assay by Lab B [1]: negative
classification in the RSMN assay by Lab C [1]: negative
classification in the RSMN assay by Lab D [1]: negative

O=[N+]([O-])c1ccc(O)cc1 [4-Nitrophenol]
top/maximum dose tested, limited by excessive or strong cytotoxicity [2, 4]: 20–48 µg/cm^2
classification in the RSMN assay by Lab A ([1]; overall call): negative
classification in the RSMN assay by Lab B ([1]; overall call): negative
classification in the RSMN assay by Lab C ([1]; overall call): negative
classification in the RSMN assay by Lab D ([1]; overall call): negative
% MN-BN response in individual experiment(s), Lab A, 72-h protocol [1, 6]: negative
% MN-BN response in individual experiment(s), Lab C, 72-h protocol [1, 6]: negative
% MN-BN response in individual experiment(s), Lab A, 48-h protocol [1, 3]: negative
% MN-BN response in individual experiment(s), Lab B, 48-h protocol [1, 3]: did not find any evidence for an increase
% MN-BN response in individual experiment(s), Lab C, 48-h protocol [1, 3]: negative
% MN-BN response in individual experiment(s), Lab D, 48-h protocol [1, 3]: did not find any evidence for an increase

O=c1[nH]cc(F)c(=O)[nH]1 [5-Fluorouracil]
% MN-BN response in individual experiment(s), Lab B, 48-h protocol [1]: negative results
% MN-BN response in individual experiment(s), Lab B, 72-h protocol [1]: negative results
classification in the RSMN assay by Lab A [1]: positive
classification in the RSMN assay by Lab B [1]: negative

O=C1CN(/N=C/c2ccc([N+](=O)[O-])o2)C(=O)N1 [Nitrofurantoin]
maximum dose tested without exceeding the cytotoxicity thresholds ([2]; human): 1600 µg/cm^2
top/maximum dose tested, limited by excessive or strong cytotoxicity ([2]; human): 48 µg/cm^2
classification in the RSMN assay by Lab B [1]: negative

COc1cc([C@@H]2c3cc4c(cc3[C@@H](O[C@@H]3O[C@@H]5CO[C@@H](C)O[C@H]5[C@H](O)[C@H]3O)[C@H]3COC(=O)[C@H]23)OCO4)cc(OC)c1O [Etoposide]
top/maximum dose tested, limited by excessive or strong cytotoxicity [2, 4]: 1.6 µg/cm^2

OCC(Br)CBr (stereo not shown) [2,3-Dibromo-1-propanol]
top/maximum dose tested, limited by excessive or strong cytotoxicity [2, 4]: 500–600 µg/cm^2
classification in the RSMN assay by Lab A ([1]; overall call): positive

CCCOC(=O)c1cc(O)c(O)c(O)c1 [Propyl gallate]
top/maximum dose tested, limited by excessive or strong cytotoxicity [2, 4]: 48 µg/cm^2
% MN-BN response in individual experiment(s), Lab B, 48-h protocol [1]: did not significantly increase
classification in the RSMN assay by Lab B [1]: negative

Oc1cccc2cccnc12 [8-Hydroxyquinoline]
top/maximum dose tested, limited by excessive or strong cytotoxicity ([2]; human): 48 µg/cm^2
classification in the RSMN assay by Lab D [1]: negative

O=[N+]([O-])c1cccc2ccccc12 [1-Nitronaphthalene]
top/maximum dose tested, limited by excessive or strong cytotoxicity [2, 4]: 50–80 µg/cm^2
classification in the RSMN assay by Lab A [1]: negative

COS(C)(=O)=O [Methyl methanesulfonate (MMS), Methyl methanesulfonate]
top/maximum dose tested, limited by excessive or strong cytotoxicity [2, 4]: 16 µg/cm^2
classification in the RSMN assay by Lab B ([1]; overall call): positive

C1CC2OC2CC1C1CO1 (stereo not shown) [4-Vinyl-1-cyclohexene diepoxide]
top/maximum dose tested, limited by excessive or strong cytotoxicity [2, 4]: 64 µg/cm^2
classification in the RSMN assay by Lab A ([1]; overall call): positive
classification in the RSMN assay by Lab B ([1]; overall call): positive
classification in the RSMN assay by Lab C ([1]; overall call): positive
% MN-BN response in individual experiment(s), Lab C, 72-h protocol [1, 6]: equivocal response
% MN-BN response in individual experiment(s), Lab B, 48-h protocol [1, 3]: significant increase
% MN-BN response in individual experiment(s), Lab C, 48-h protocol [1, 3]: negative
% MN-BN response in individual experiment(s), Lab D, 48-h protocol [1, 3]: negative

CCC(=O)OCC(=O)[C@@]1(OC(=O)CC)[C@@H](C)C[C@H]2[C@@H]3CCC4=CC(=O)C=C[C@]4(C)[C@@]3(Cl)[C@@H](O)C[C@@]21C [Beclomethasone dipropionate]
maximum dose tested without exceeding the cytotoxicity thresholds [2, 5]: 1600 µg/cm^2
classification in the RSMN assay by Lab B ([1]; overall call): negative
% MN-BN response in individual experiment(s), Lab B, 48-h protocol [1, 3]: no significant increases

COc1cc(/C=C/C(=O)CC(=O)/C=C/c2ccc(O)c(OC)c2)ccc1O [Curcumin]
top/maximum dose tested, limited by excessive or strong cytotoxicity [2, 4]: 160 µg/cm^2
classification in the RSMN assay by Lab B ([1]; overall call): positive

O=C(O)Cc1ccccc1Nc1c(Cl)cccc1Cl [Diclofenac]
top/maximum dose tested, limited by excessive or strong cytotoxicity [2, 4]: 50–80 µg/cm^2
classification in the RSMN assay by Lab A ([1]; overall call): positive
classification in the RSMN assay by Lab B ([1]; overall call): positive
classification in the RSMN assay by Lab D ([1]; overall call): positive
apoptotic cells alongside the increase of micronuclei ([1]; reported by Lab A): strong increase of apoptotic cells
% MN-BN response in individual experiment(s), Lab A, 48-h protocol [1, 3]: significant increases

Cc1ccc(N)cc1N [2,4-Diaminotoluene (2,4-DAT), 2,4-Diaminotoluene]
top/maximum dose tested, limited by excessive or strong cytotoxicity [2, 4]: 700 µg/cm^2
classification in the RSMN assay by Lab A ([1]; overall call): positive
classification in the RSMN assay by Lab B ([1]; overall call): negative
classification in the RSMN assay by Lab D ([1]; overall call): negative
% MN-BN response in individual experiment(s), Lab B, 72-h protocol [1, 6]: negative
% MN-BN response in individual experiment(s), Lab B, 48-h protocol [1, 3]: none of which caused a significant increase
% MN-BN response in individual experiment(s), Lab D, 48-h protocol [1, 3]: negative

CCc1cc(C(N)=S)ccn1 [Ethionamide]
% VCC or BN (cytotoxicity thresholds exceeded) ([2]; human): < 40 % VCC or BN
top/maximum dose tested, limited by excessive or strong cytotoxicity ([2]; human): 30–160 µg/cm^2
% MN-BN response in individual experiment(s), Lab A, 48-h protocol [1]: negative
% MN-BN response in individual experiment(s), Lab B, 48-h protocol [1]: negative
% MN-BN response in individual experiment(s), Lab B, 72-h protocol [1]: negative
% MN-BN response in individual experiment(s), Lab C, 48-h protocol [1]: negative
classification in the RSMN assay by Lab A [1]: negative
classification in the RSMN assay by Lab B [1]: negative
classification in the RSMN assay by Lab C [1]: negative

Cc1c(N)cccc1N [2,6-Diaminotoluene (2,6-DAT), 2,6-Diaminotoluene]
top/maximum dose tested, limited by excessive or strong cytotoxicity [2, 4]: 350 µg/cm^2
classification in the RSMN assay by Lab D [1]: negative

COC(=O)C1=C(C)NC(C)=C(C(=O)OC)C1c1ccccc1[N+](=O)[O-] [Nifedipine]
classification in the RSMN assay by Lab A ([1]; overall call): negative

OC[C@@H](O)[C@@H](O)[C@H](O)[C@H](O)CO [D-Mannitol]
maximum dose tested without exceeding the cytotoxicity thresholds [2, 5]: 1600 µg/cm^2
classification in the RSMN assay by Lab B ([1]; overall call): negative
classification in the RSMN assay by Lab D ([1]; overall call): negative
% MN-BN response in individual experiment(s), Lab B, 48-h protocol [1, 3]: no significant increase
% MN-BN response in individual experiment(s), Lab D, 48-h protocol [1, 3]: no significant increase

CC(=O)O[C@H]1C(=O)[C@@]2(C)[C@H]([C@H](OC(=O)c3ccccc3)[C@]3(O)C[C@H](OC(=O)[C@H](O)[C@@H](NC(=O)c4ccccc4)c4ccccc4)C(C)=C1C3(C)C)[C@]1(OC(C)=O)CO[C@@H]1C[C@@H]2O [Taxol]
top/maximum dose tested, limited by excessive or strong cytotoxicity [2, 4]: 1.6 µg/cm^2
classification in the RSMN assay by Lab C ([1]; overall call): positive
% MN-BN response in individual experiment(s), Lab C, 48-h protocol [1, 3]: clear and dose-dependent increase

CCOS(C)(=O)=O [Ethyl methanesulfonate (EMS), Ethyl methanesulfonate]
top/maximum dose tested, limited by excessive or strong cytotoxicity [2, 4]: 360 µg/cm^2
classification in the RSMN assay by Lab A ([1]; overall call): positive
classification in the RSMN assay by Lab C ([1]; overall call): positive
% MN-BN response in individual experiment(s), Lab A, 72-h protocol [1, 6]: significant increase in the % MN-BN at multiple doses
% MN-BN response in individual experiment(s), Lab C, 48-h protocol [1, 3]: clear and dose-dependent increase

Oc1cccc(O)c1 [Resorcinol]
% MN-BN response in individual experiment(s), Lab B, 48-h protocol [1]: significant increase in % MN-BN at the highest dose tested
% MN-BN response in individual experiment(s), Lab B, 72-h protocol [1]: did not induce any statistically significant increase
classification in the RSMN assay by Lab B [1]: negative
